Reference: ChEMBL document CHEMBL1201862, “PubChem BioAssay data set” (2004)
Activity calls are given as the source filed them.

Assays:
[1] = target: Aryl hydrocarbon receptor (Homo sapiens, UniProt P35869); assay: Luminescence-based cell-based high throughput dose response assay for activators of the Aryl Hydrocarbon Receptor (AHR). [Related pubchem assays: 2796 (Primary screen (AHR activators in singlicate)), 2845 (Confirmation screen (AHR activators in triplicate)), 434939 (Counterscreen (PXR activators in triplicate)), 2804 (Summary (AHR activators))]; type: ADME
[2] = target: T1, Tyrosine-protein phosphatase non-receptor type 7 (Homo sapiens, UniProt P35236); assay: HePTP tyrosine phosphatase activity blockers – biochemical, absorbance, leukemia target, primary screen (AID 521); type: functional
T1 sequence (P35236 whole entry): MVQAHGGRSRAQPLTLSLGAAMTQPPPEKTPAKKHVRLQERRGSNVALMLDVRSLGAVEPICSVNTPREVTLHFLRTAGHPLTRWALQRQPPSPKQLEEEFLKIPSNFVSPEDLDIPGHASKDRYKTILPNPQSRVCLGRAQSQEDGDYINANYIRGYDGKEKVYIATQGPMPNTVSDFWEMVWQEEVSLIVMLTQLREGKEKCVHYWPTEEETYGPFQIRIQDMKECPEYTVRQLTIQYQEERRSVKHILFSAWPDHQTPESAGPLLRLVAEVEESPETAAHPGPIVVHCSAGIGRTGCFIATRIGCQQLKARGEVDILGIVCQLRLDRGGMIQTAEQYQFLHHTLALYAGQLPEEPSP

[3] = target: Long-chain-fatty-acid--AMP ligase FadD28 (Mycobacterium tuberculosis, UniProt P9WQ59); assay: Fluorescence polarization aasay to screen for inhibitors that compete for the binding of FadD28 to a bisubstrate Measured in Biochemical System Using Plate Reader - 2147-01_Inhibitor_Dose_CherryPick_Activity.; type: functional, Mycobacterium tuberculosis H37Rv
[4] = target: T2, Female germline-specific tumor suppressor gld-1 (Caenorhabditis elegans, UniProt Q17339); assay: blockers of GLD-1/TGE RNA complex formation – biochemical, fluorescence polarization, C. elegans, dose response (AID 2802);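 also: fluorescence polarization of labeled TGE RNA bound by purified gld-1 protein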
T2 sequence (Q17339 whole entry): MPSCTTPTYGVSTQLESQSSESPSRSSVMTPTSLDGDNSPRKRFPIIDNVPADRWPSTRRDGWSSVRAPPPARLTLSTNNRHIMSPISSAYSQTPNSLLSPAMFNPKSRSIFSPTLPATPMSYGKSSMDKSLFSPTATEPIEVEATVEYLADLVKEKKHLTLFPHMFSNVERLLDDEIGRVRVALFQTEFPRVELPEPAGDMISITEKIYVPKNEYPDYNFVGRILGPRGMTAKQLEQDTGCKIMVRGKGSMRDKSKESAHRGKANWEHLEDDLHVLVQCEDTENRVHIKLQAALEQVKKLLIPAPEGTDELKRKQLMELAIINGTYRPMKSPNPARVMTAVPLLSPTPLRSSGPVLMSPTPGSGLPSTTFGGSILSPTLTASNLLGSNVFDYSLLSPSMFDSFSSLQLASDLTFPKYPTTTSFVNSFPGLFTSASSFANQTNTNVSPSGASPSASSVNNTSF

[5] = target: T3, Polyadenylate-binding protein 1 (Homo sapiens, UniProt P11940); assay: MLLE binding blockers, Cy5 peptide tracer – biochemical, fluorescence polarization, Cy5-PAM2 peptide, secondary, miRNA deadenylation inhibitor project, dose response (AID 602260); type: functional; details: read-out: IC50_Mean
14-3-3 protein gamma = 14-3-3 protein gamma (Homo sapiens, UniProt P61981); assay: modulators of 14-3-3 gamma client binding – dose response (AID 711); type: functional
[6] = target: T3, Polyadenylate-binding protein 1; assay: MLLE domain peptide-binding blockers, IC50 – biochemical, fluorescence polarization, FITC-PAM2 peptide, dose response (AID 602259); type: functional; details: read-out: IC50_Mean
Protein Rev = target: T4, Protein Rev (Human immunodeficiency virus type 1 group M subtype B (isolate HXB2)(HIV-1), UniProt P04618); assay: blockers of HIV Rev/RRE RNA complex – biochemical, fluorescence polarization, HIV-1, dose response (AID 434976); set-up: species or system Human immunodeficiency virus 1
T4 sequence (P04618 whole entry): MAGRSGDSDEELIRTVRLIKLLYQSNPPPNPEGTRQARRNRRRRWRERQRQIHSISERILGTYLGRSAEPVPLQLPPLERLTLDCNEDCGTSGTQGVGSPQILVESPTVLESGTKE

Danio rerio = assay: In Vivo Angiogenesis Dose-Response Confirmation. [Related pubchem assays: 732 (Assay preceding this confirmatory assay.)]; type: functional, organism-based
[7] = target: Voltage-gated inwardly rectifying potassium channel KCNH2 (Homo sapiens, UniProt Q12809); details: Potency;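 also: confirmatory quantitative high-throughput screen measuring inhibition of hERG channel activity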
Sequence of Voltage-gated inwardly rectifying potassium channel KCNH2 (Q12809 whole entry): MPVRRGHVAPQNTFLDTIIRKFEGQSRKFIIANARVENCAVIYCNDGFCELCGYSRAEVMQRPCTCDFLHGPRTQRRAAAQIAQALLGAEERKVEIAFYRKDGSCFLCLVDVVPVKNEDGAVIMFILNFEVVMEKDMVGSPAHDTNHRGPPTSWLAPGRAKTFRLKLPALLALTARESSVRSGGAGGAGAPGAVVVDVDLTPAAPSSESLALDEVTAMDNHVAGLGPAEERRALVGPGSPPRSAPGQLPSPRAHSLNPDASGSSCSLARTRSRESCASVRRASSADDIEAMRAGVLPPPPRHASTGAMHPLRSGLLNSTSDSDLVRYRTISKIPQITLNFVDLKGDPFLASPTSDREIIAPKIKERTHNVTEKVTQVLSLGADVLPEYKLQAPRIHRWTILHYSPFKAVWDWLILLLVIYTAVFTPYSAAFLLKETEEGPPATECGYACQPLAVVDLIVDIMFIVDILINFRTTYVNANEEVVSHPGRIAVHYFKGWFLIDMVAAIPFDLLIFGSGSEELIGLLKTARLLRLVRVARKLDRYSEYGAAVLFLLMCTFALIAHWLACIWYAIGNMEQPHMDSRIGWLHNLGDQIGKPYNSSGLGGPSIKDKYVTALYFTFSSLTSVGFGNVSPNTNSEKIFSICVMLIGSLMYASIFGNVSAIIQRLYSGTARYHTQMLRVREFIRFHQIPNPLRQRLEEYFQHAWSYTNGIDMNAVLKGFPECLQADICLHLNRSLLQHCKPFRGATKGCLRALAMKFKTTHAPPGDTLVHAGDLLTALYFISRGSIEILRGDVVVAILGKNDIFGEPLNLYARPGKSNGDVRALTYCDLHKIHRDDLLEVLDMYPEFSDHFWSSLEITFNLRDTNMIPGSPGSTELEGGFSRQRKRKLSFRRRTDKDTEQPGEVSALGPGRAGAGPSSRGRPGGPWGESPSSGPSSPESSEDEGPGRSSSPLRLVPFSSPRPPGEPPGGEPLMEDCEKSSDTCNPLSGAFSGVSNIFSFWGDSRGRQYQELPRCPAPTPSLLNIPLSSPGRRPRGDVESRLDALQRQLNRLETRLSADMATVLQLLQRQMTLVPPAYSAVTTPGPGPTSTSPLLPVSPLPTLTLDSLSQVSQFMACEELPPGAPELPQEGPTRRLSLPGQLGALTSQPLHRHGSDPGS

T3 sequence (P11940 whole entry): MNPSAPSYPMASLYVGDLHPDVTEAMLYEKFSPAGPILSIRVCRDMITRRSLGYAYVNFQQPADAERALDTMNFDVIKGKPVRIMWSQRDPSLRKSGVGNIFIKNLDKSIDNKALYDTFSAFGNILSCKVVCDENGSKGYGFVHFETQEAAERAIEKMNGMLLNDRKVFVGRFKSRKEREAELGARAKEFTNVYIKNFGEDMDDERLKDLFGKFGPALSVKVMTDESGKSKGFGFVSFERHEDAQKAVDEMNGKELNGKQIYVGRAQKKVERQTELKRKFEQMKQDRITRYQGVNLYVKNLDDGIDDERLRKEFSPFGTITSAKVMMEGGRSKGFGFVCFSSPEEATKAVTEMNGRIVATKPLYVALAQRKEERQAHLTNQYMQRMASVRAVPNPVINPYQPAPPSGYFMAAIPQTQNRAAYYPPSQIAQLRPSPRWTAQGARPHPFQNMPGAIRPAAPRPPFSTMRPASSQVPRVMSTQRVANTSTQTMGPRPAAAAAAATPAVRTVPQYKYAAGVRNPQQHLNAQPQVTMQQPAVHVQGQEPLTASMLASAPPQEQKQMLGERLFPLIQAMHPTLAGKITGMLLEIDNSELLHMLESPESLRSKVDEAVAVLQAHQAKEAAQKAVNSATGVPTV
Sequence of Long-chain-fatty-acid--AMP ligase FadD28 (P9WQ59 whole entry): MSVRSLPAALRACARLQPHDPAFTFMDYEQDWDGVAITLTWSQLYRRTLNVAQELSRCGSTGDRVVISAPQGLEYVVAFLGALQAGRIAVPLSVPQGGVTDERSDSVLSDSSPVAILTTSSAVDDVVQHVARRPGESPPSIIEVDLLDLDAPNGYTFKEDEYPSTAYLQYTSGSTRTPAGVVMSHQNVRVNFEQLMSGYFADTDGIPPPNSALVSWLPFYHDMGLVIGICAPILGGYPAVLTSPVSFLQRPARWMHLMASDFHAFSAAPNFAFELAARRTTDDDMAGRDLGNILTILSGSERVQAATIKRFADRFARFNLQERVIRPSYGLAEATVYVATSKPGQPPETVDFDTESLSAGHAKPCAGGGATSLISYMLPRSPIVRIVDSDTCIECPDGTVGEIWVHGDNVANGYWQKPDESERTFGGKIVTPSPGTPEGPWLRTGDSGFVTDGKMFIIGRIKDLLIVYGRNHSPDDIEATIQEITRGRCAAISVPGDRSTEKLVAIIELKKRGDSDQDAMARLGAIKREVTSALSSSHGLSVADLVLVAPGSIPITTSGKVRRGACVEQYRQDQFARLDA
Sequence of 14-3-3 protein gamma (P61981 whole entry, the tested form may be a part): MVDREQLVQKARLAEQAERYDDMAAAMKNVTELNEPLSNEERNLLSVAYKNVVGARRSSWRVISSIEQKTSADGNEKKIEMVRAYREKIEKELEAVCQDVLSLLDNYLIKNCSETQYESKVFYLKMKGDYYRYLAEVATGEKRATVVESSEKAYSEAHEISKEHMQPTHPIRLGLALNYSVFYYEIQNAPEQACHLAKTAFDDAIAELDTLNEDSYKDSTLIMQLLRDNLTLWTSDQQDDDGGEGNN
Sequence of Aryl hydrocarbon receptor (P35869 whole entry): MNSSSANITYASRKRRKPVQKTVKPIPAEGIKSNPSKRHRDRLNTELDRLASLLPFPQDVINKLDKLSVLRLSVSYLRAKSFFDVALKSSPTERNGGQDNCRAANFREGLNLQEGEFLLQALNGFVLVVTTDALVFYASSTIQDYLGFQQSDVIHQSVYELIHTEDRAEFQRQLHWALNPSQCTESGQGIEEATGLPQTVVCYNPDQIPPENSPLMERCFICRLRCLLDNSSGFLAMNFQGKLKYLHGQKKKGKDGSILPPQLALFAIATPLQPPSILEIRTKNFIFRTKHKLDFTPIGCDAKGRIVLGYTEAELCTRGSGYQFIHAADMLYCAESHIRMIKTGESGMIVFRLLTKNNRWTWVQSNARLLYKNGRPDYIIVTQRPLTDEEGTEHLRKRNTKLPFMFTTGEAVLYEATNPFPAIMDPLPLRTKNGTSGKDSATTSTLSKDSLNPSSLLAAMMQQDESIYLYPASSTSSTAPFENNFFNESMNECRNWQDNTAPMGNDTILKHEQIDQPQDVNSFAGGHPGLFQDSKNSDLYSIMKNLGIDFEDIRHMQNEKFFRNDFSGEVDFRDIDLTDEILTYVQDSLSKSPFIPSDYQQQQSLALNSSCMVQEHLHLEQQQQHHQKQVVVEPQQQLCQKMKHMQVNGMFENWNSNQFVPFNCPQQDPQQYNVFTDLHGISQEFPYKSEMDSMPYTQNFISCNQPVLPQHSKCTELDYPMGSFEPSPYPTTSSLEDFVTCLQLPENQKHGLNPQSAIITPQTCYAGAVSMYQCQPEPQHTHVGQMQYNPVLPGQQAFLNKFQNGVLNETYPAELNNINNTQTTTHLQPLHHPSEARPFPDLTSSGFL

COCC(=O)Nc1nnc(-c2cccs2)s1
EC50 [1]: 6.26 µM (active)

CCOC(=O)COc1ccc(C2NC(C(=O)O)CS2)cc1 (stereo not given)
IC50 [2]: > 100 µM (not active)

CCn1c(CSc2nccn2C)nc2cc(C(=O)O)ccc21
AC50 [3]: > 100 µM (inactive)
IC50 [4]: 14.9 µM (inactive)
IC50 [5]: 62.1 µM (inactive)
IC50 (14-3-3 protein gamma): > 50 µM (not active)
IC50 [6]: 36.7 µM (inactive)
IC50 (Protein Rev): 19.7 µM (not active)

CN(C)c1ccc(/C=C2\C(=O)Nc3ccccc32)cc1
IC50 (Danio rerio): > 100 µM (not active)
AC50 [7]: 14.1 µM (inconclusive)
